Tested on: MYC protein in HeLa cells
Assay: Immunoblotting of MYC protein in HeLa cell lysates
Format: cell-based, human
Conditions: for effect on MYC induction by i-CDK9: pretreatment before i-CDK9
Protocol: Figure 3. Induction of MYC mRNA production in response to sustained inhibition of CDK9 by i-CDK9 and the requirement of MYC's natural genomic structure in this process. (A) The indicated tumor cell lines were treated with i-CDK9 (0.5 μM) for 2–16 hr and the MYC mRNA levels, which were divided by those in the DMSO-treated cells and averaged from three independent replicates of DNA microarray analysis, were shown as log2 values. (B) HeLa cells were treated with the indicated concentrations of i-CDK9 for 8 hr and the various proteins in the total cell lysates were detected by immunoblotting as indicated. Quantifications of the levels of MYC protein and Ser2-phosphoryalted Pol II (pSer2) in the lysates were shown above and below the immunoblots, respectively. […] The levels of the indicated proteins were examined by immunoblotting. (G) A HeLa-based cell line containing the stably transfected, doxycycline (Dox)-inducible MYC-F-expressing plasmid driven by the CMV promoter was pretreated with (+) or without (−) Dox prior to incubation with i-CDK9 or DMSO. MYC and MYC-F expressed from the endogenous MYC locus and the transfected plasmid, respectively, were detected by immunoblotting. DOI: http://dx.doi.org/10.7554/eLife.06535.007 Figure 3—figure supplement 1. Biphasic response of MYC mRNA production throughout the course of CDK9 inhibition by i-CDK9. DOI: http://dx.doi.org/10.7554/eLife.06535.008 [drawing 2] Figure 3—Figure supplement 2. […] DOI: http://dx.doi.org/10.7554/eLife.06535.009 [drawing 3] TEXT PRINTED IN THE PICTURE: (B) i-CDK9: Fold increase in MYC protein: 1.0 (i-CDK9 (μM): 0); Fold increase in MYC protein: 1.2 (i-CDK9 (μM): 0.01); Fold increase in MYC protein: 1.7 (i-CDK9 (μM): 0.03); Fold increase in MYC protein: 3.6 (i-CDK9 (μM): 0.1); Fold increase in MYC protein: 5.2 (i-CDK9 (μM): 0.3); Fold increase in MYC protein: 5.5 (i-CDK9 (μM): 1.0) | (C) i-CDK9: Fold increase in MYC protein: 1.0 (0.3 μM i-CDK9 (h): 0); Fold increase in MYC protein: 0.9 (0.3 μM i-CDK9 (h): 1); Fold increase in MYC protein: 1.1 (0.3 μM i-CDK9 (h): 2); Fold increase in MYC protein: 1.2 (0.3 μM i-CDK9 (h): 4); Fold increase in MYC protein: 3.3 (0.3 μM i-CDK9 (h): 8)
First, the induction of MYC protein level was confirmed in HeLa cells treated with i-CDK9. […] It took 1.0 µM i-CDK9 to cause up to 85% reduction in pSer2. In a separate time-course analysis, the 8-hr incubation with i-CDK9 (0.3 μM) induced the MYC level by 3.3-fold, whereas the same condition reduced the pSer2 level by only 40% (Figure 3C). Thus, MYC expression was highly responsive to i-CDK9 treatment and occurred at a time point earlier and drug concentration lower than those required to achieve a significant suppression of Ser2 phosphorylation on the Pol II CTD.

Compound | effect on MYC induction by i-CDK9 | MYC protein level (e.g. 4 hr, e.g. 0.1 μM)
Cc1sc2c(c1C)C(c1ccc(Cl)cc1)=N[C@@H](CC(=O)OC(C)(C)C)c1nnc(C)n1-2 [JQ1, reference compound] | completely abolished | 
CN1CC[C@H](c2c(O)cc(O)c3c(=O)cc(-c4ccccc4Cl)oc23)[C@H](O)C1 [Flavopiridol, flavopiridol, reference compound] |  | significantly elevated
Cc1sc2c(c1C)C(c1ccc(Cl)cc1)=N[C@H](CC(=O)OC(C)(C)C)c1nnc(C)n1-2 [ctl., reference compound] | ineffective | 
